Like-named read-outs stand apart in the source and are kept apart here.
Assays:
[1] = Hypnotic activity (method of JANSEN); format: in vivo, mice; details: 95% confidence interval (FINNEY); for ED50: Mus musculus, ip, read-out: 50% hypnotic dose (confidence interval)
Procedure: The hypnotic activity of the compounds of the present invention was assessed by the method of JANSEN (J. Med. Pharm. Chem., 1959, 1, 281).
After treatment i.p., each mouse is carefully placed on its back. […] In each batch (10 mice per dose), the percentage of sleeping animals is noted. The 50% hypnotic dose and its 95% confidence interval were calculated according to FINNEY's (1971) method.

[2] = Hypnotic activity (method of JANSEN); format: in vivo, mice; details: 95% confidence interval (FINNEY); for 50% hypnotic dose (confidence interval): i.v.; for ED50: Mus musculus, iv, read-out: 50% hypnotic dose (confidence interval)
food neophobia = assay: Anxiolytic activity: food neophobia test; format: in vivo, mice; details: 30 minutes after treatment
Procedure: This activity was studied by the food neophobia test. In effect, a pronounced inhibition of the feed intake can be obtained in mice when both the food and the enclosure are unfamiliar to the aninal (R. J. STEPHENS, Brit. J. Pharmacol., 1973, 47, 145 P). All anxiolytics specifically counteract neophobia phenomena.
30 minutes after oral or subcutaneous treatment with the test derivatives and the reference products, the mice, fasted for 16 to 20 hours, are isolated in a translucent enclosure and placed in the presence of an unfamiliar food for 5 minutes.
The amounts consumed are evaluated in proportion to the weight of the animal.
In each batch, the mean consumption and also the percentage variation relative to the control batch are calculated in this manner.

pentetrazole seizures = assay: Anticonvulsant activity: protection against pentetrazole seizures (EVERETT and RICHARDS); format: in vivo, mice; details: Mus musculus, po, 0.5 h, pentetrazole 125 mg/kg subcutaneously, no tonic seizures during 30 minutes, 95% confidence limits (FINNEY), read-out: ED50 (Confidence interval)
Procedure: The protective effect produced by the compound of the inventon against pentetrazole seizures was studied.
This test was carried out according to the method of EVERETT and RICHARDS (J. Pharm. Exp. Ther., 1944, 81, 402-407). The test products and reference products were administered orally (suspended in gum arabic) to batches of 10 mice, 30 minutes […] pentetrazole (125 mg/kg subcutaneously).

benzodiazepine receptors = assay: Affinity for benzodiazepine receptors: inhibition of specific binding of [3H]flunitrazepam (WASTEK et al., modified); parameters: species or system rats; details: 50% inhibition of specific binding of [3H]flunitrazepam, rat brain membranes
Procedure: This study was performed according to the technique of WASTEK et al., (Europ. J. Pharmacol., 1978, 50, 445-447) slightly modified.
Rats are sacrificed by decapitation, and the brain is removed, ground, suspended, centrifuged and resuspended.
Samples of this suspension are incubated in the presence of [^3 H]flunitrazepam, alone or in the presence of increasing concentrations of the test compound.
The radioactivity bound on the membranes is then determined by liquid scintillation.
The concentration of product which 50% inhibits the specific binding of [^3 H]flunitrazepam (IC50) is thereby determined.

[3] = Acute toxicity in mice (oral); details: mouse, in vivo, oral administration
Description: The acute, chronic, sub-chronic and delayed toxicities were dealt with in this study. Performed on various animal species, the trials brought out the low toxicity and good tolerability of the derivatives of the invention.

[4] = comparison, L. PIERI et al., Arzneim. Forsch., 1981; route not given; cited from earlier work

| SMILES | ED50 [1] [mg/kg] | ED50 (pentetrazole seizures) [mg/kg] | IC50 (benzodiazepine receptors) [nM] | ED50 [2] [mg/kg] | further results |
| --- | --- | --- | --- | --- | --- |
| CCCN(CCC)C(=O)CNc1c(C(=O)OCC)cnc2ccc(Cl)cc12 [12 (Phosphate)] | 38 |  |  |  | 50% hypnotic dose (confidence interval) [2]: 2 (1-4) mg/kg |
| CCCN(CCC)C(=O)CNc1c(C(=O)OCC)cnc2ccc(Cl)cc12 [12 (Sulphate)] |  |  |  |  | 50% hypnotic dose (confidence interval) ([1]; i.p.): 30 (14-39) mg/kg; 50% hypnotic dose (confidence interval) [2]: 6 (4-15) mg/kg |
| CNC1=Nc2ccc(Cl)cc2C(c2ccccc2)=[N+]([O-])C1 [Chlordiazepoxide, chlordiazepoxide, reference compound] |  | 7 | 950 |  | Percentage increase (food consumption relative to control batch) (food neophobia; dose 16 mg/kg, PO): 73% |
| CCOC(=O)c1cnc2ccc(Cl)cc2c1NCC(=O)N(CC)CC [Derivative 1, 2-(3-Ethoxycarbonyl-6-chloro-4-quinolyl)amino-N,N-diethylacetamide] |  | 49 | 85 |  | LD50 [3]: 1800 mg/kg |
| CCOC(=O)c1cnc2ccc(OC)cc2c1NCC(=O)N(CC)CC [Derivative 3, 2-(3-Ethoxycarbonyl-6-methoxy-4-quinolyl)amino-N,N-diethylacetamide] | 27 |  | 55 | 7 | LD50 [3]: 1650 mg/kg |
| CCOC(=O)c1cnc2ccc(C(F)(F)F)cc2c1NCC(=O)N(CC)CC [Derivative 4, 2-(3-Ethoxycarbonyl-6-trifluoromethyl-4-quinolyl)amino-N,N-diethylacetamide] | 27 |  | 97 | 5 |  |
| CCOC(=O)c1cnc2ccc([N+](=O)[O-])cc2c1NCC(=O)N(CC)CC [Derivative 5, 2-(3-Ethoxycarbonyl-6-nitro-4-quinolyl)amino-N,N-diethylacetamide] | 25 | 50 | 97 | 9 |  |
| CCOC(=O)c1cnc2ccc(OCC)cc2c1NCC(=O)N(CC)CC [Derivative 8] | 18 |  | 133 | 5 |  |
| CCCN(CCC)C(=O)CNc1c(C(=O)OCC)cnc2ccc(Cl)cc12 [Derivative 12, 2-(3-Ethoxycarbonyl-6-chloro-4-quinolyl)amino-N,N-dipropylacetamide] |  | 10 | 16 |  | Percentage increase (food consumption relative to control batch) (food neophobia; dose 32 mg/kg, PO): 75% |
| CCCN(CCC)C(=O)CNc1c(C(=O)OCC)cnc2ccc(C)cc12.Cl [Derivative 13, 2-(3-Ethoxycarbonyl-6-methyl-4-quinolyl)amino-N,N-dipropylacetamide hydrochloride] |  | 25 | 25 |  | Percentage increase (food consumption relative to control batch) (food neophobia; dose 16 mg/kg, PO): 75% |
| CCCN(CCC)C(=O)CNc1c(C(=O)OCC)cnc2ccc(OC)cc12 [Derivative 14, 2-(3-Ethoxycarbonyl-6-methoxy-4-quinolyl)amino-N,N-dipropylacetamide] | 25 | 40 | 17 | 5 |  |
| CCCN(CCC)C(=O)CNc1c(C(=O)OCC)cnc2ccc(Br)cc12 [Derivative 17, 2-(3-Ethoxycarbonyl-6-bromo-4-quinolyl)amino-N,N-dipropylacetamide] |  | 18 | 8 |  | Percentage increase (food consumption relative to control batch) (food neophobia; dose 32 mg/kg, SC): 75% |
| CCOC(=O)c1cnc2ccc(OCC)cc2c1NCC(=O)N1CCCCC1 [Derivative 33, 1-{2-[(3-Ethoxycarbonyl-6-ethoxy-4-quinolyl)amino]acetyl}piperidine] | 15 |  | 54 | 5 |  |
| CCOC(=O)c1cnc2ccc(Cl)cc2c1NCC(=O)N1CCCC(C)C1 (centres unmarked) [Derivative 38, 1-{2-[(3-Ethoxycarbonyl-6-chloro-4-quinolyl)amino]acetyl}-3-methylpiperidine] | 28 | 46 | 65 | 9 |  |
| CCN(CC)C(=O)CNc1c(C(=O)O)cnc2ccc(Cl)cc12 [Derivative 43, 2-(3-Carboxy-6-chloro-4-quinolyl)amino-N,N-diethylacetamide] |  |  | 7 |  | Percentage increase (food consumption relative to control batch) (food neophobia; dose 64 mg/kg, SC): 75%; LD50 [3]: 2200 mg/kg |
| CCCN(CCC)C(=O)CNc1c(C(=O)O)cnc2ccc(Cl)cc12 [Derivative 46, 2-(3-Carboxy-6-chloro-4-quinolyl)amino-N,N-dipropylacetamide] |  |  | 1 |  | Percentage increase (food consumption relative to control batch) (food neophobia; dose 16 mg/kg, SC): 75% |
| CCOC(=O)c1cnc2ccc(Cl)cc2c1N(C)CC(=O)N(CC)CC [Derivative 58, [N'-(3-Ethoxycarbonyl-6-chloro-4-quinolyl)-N'-methylamino]-N,N-diethylacetamide] |  | 44 |  |  | Percentage increase (food consumption relative to control batch) (food neophobia; dose 64 mg/kg, SC): 80% |
| CCCN(CCC)C(=O)CN(C)c1c(C(=O)OCC)cnc2ccc(Cl)cc12 [Derivative 59, [N'-(3-Ethoxycarbonyl-6-chloro-4-quinolyl)-N'-methylamino]-N,N-dipropylacetamide] |  | 16 |  |  | Percentage increase (food consumption relative to control batch) (food neophobia; dose 32 mg/kg, PO): 146% |
| CN1C(=O)CN=C(c2ccccc2)c2cc(Cl)ccc21 [Diazepam, diazepam, reference compound] |  |  | 10 |  | Percentage increase (food consumption relative to control batch) (food neophobia; dose 4 mg/kg, PO): 80% |
| CCCC(C)(COC(N)=O)COC(N)=O [Meprobamate, reference compound] |  | 36 |  |  | Percentage increase (food consumption relative to control batch) (food neophobia; dose 60 mg/kg, PO): 95% |
| Cc1ncc2n1-c1ccc(Cl)cc1C(c1ccccc1F)=NC2 [midazolam] |  |  |  |  | 50% hypnotic dose [4]: 23 mg/kg |
| CCCC(C)C1(CC)C(=O)NC(=S)NC1=O (centres unmarked) [thiopental sodium] |  |  |  |  | 50% hypnotic dose [4]: 17 mg/kg |
